# Experimental data: US20260345615A1, “COMPOSITIONS COMPRISING SOTORASIB” (AMGEN INC., priority 2023, published 2026)
# Legend:
# [1] = Stability testing: XRPD, Example 2; format: physicochemical
# Experimental: (§1) Stability testing of the three ASDs prepared in Example 1 was conducted over 2 months (T=0, 1 month and 2 months) using XRPD, TGA, DSC, PSD, and dissolution tests (FaSSIF and biorelevant media).
# (§2) Stability Testing: ASD samples were stored in low density polyethylene (LPDE) bags placed in a heat-sealed aluminum foil pouch along with desiccant. Foil pouches were then placed into a stability chamber at 25 °C/60% RH and taken out for stability testing (XRPD, TGA, DSC PSD, dissolution and biorelevant dissolution) at specified timepoints.
# X-Ray Powder Diffraction (XRPD) Analysis: XRPD data was obtained using a Panalytical PW3040-PRO diffractometer. Samples were scanned at room temperature (25 °C) in continuous mode from 3-45 degrees (2θ) with step size of 0.03 degrees at 45 kV and 40 mA with CuKα radiation (1.54 A). The incident beam path was equipped with a primary soller slit 0.04 rad and a divergence slit 0.38 mm, in a fixed slit mode. Samples were prepared on a low background sample holder and placed on a spinning stage with a rotation time of 4 sec.
# [2] = Stability testing: Thermal Gravimetric analysis (TGA), Example 2; format: physicochemical
# Experimental: as §1, §2
# Thermal Gravimetric analysis (TGA): TGA was performed to evaluate presence for residual solvent and any thermal transitions which may result in weight loss. TGA was performed on a TA Instruments Discovery 550 Series analyzer at 5 °C/min from ambient temperature to 200 °C in a platinum pan under dry nitrogen at 25 ml/min. Sample size was ~2-8 mg.
# [3] = Stability testing: DSC, Tg, Example 2; format: physicochemical
# Experimental: as §1, §2
# Differential Scanning Calorimetry (DSC) Analysis: DSC data is collected using a TA Instruments Q2500 DSC. Approximately, 2-6 mg of the sample was placed in a Tzero aluminum pan and sealed with Tzero lid. Method Log consist of equilibrating to −20 °C, holding Isothermal for 1.00 min, Ramping 10.00 °C/min to 160.0 °C, holding isothermal for 1.00 min, bringing down to Ramp of 10.00 °C/min to −20.00 °C, holding isothermal for 1.00 min, ramping 10.00 °C/min to 200 °C, marking end of cycle. Conditions were done under a nitrogen purge of about 50 mL/min.
# [4] = Particle size distribution (laser diffraction), Example 1; format: physicochemical; details: Example 1, Table 1
# Text: Particle Size Distribution (PSD): Analysis of each of the samples was obtained using a Sympatec Helos laser diffraction analyzer. The results of the particle size analysis are shown in Table 1 (D10, D50, and D90 values).
# [5] = Stability testing: particle size distribution (PSD), Example 2; format: physicochemical
# Experimental: as §1, §2
# Particle Size Distribution (PSD): Analysis of each of the samples was obtained using a Sympatec Helos laser diffraction analyzer. The results are shown below (D10, D50, and D90 values).
# KRAS^G12C = details: role: inhibitor, background statement, cited from earlier work
# [6] = Stability testing: dissolution (FaSSIF), Example 2; format: physicochemical; details: FaSSIF pH 6.50; all crystalline samples, first two timepoints of amorphous samples
# Experimental: as §1, §2
# Dissolution (FaSSIF): The dissolution properties of ASDs 1-3 and the control spray-dried sotorasib were assessed as described herein. 5 mg of amorphous sotorasib (control), 5 mg of crystalline sotorasib (control), and 20 mg of ASDs1-3 as listed in Table 1 were added to separate 20 mL vials of FaSSIF (pH 6.50) and samples were collected at 5, 15, 20, 30, 60, 120, 180 min timepoints. […] The mobile phases were A:Water with 0.1% trifluoroacetic acid and B:Acetonitile with 0.1% trifluoroacetic acid. The method was a reverse gradient of 5% B 95% A to 98% B 2% A over 15 minutes using a wavelength 254 nm for detection and quantification.
structure (smiles),measurement,setting,value
C=CC(=O)N1CCN(c2nc(=O)n(-c3c(C)ccnc3C(C)C)c3nc(-c4c(O)cccc4F)c(F)cc23)[C@@H](C)C1 [sotorasib amorphous],XRPD result,[1]; T = 0,amorphous
same,XRPD result,"[1]; T = 1 month, 25 °C/60% RH",amorphous
same,XRPD result,"[1]; T = 2 months, 25 °C/60% RH",amorphous
same,TGA result (weight change),[2]; T = 0,<1%
same,TGA result (weight change),"[2]; T = 1 month, 25 °C/60% RH",<1%
same,TGA result (weight change),"[2]; T = 2 months, 25 °C/60% RH",<1%
same,DSC result - Tg,"[3]; T = 0, n1",n1: 147.7 °C
same,DSC result - Tg,"[3]; T = 0, n2",n2: 146.9 °C
same,DSC result - Tg,"[3]; T = 1 month, n1, 25 °C/60% RH",n1: 148.4 °C
same,DSC result - Tg,"[3]; T = 1 month, n2, 25 °C/60% RH",n2: 148.3 °C
same,DSC result - Tg,"[3]; T = 2 months, n1, 25 °C/60% RH",n1: 149.1 °C
same,DSC result - Tg,"[3]; T = 2 months, n2, 25 °C/60% RH",n2: 148.6 °C
same,D10,[4],<1.0 μm
same,D50,[4],<4.0 μm
same,D90,[4],<16 μm
same,PSD result - D10,[5]; T = 0,0.8 μm
same,PSD result - D50,[5]; T = 0,3.6 μm
same,PSD result - D90,[5]; T = 0,13.4 μm
same,PSD result - D10,"[5]; T = 1 month, 25 °C/60% RH",0.8 μm
same,PSD result - D50,"[5]; T = 1 month, 25 °C/60% RH",4.2 μm
same,PSD result - D90,"[5]; T = 1 month, 25 °C/60% RH",14.4 μm
same,PSD result - D10,"[5]; T = 2 months, 25 °C/60% RH",0.8 μm
same,PSD result - D50,"[5]; T = 2 months, 25 °C/60% RH",3.8 μm
same,PSD result - D90,"[5]; T = 2 months, 25 °C/60% RH",13.5 μm
"C=CC(=O)N1CCN(c2nc(=O)n(-c3c(C)ccnc3C(C)C)c3nc(-c4c(O)cccc4F)c(F)cc23)[C@@H](C)C1 (atropisomer, axis not shown) [Sotorasib]","activity at the target protein, atropisomers",KRAS^G12C; (M)- v. (P)-configuration,more active at the target protein than the (P)-configuration
same,inhibition of KRAS^G12C,KRAS^G12C,specifically and irreversibly inhibits
C=CC(=O)N1CCN(c2nc(=O)n(-c3c(C)ccnc3C(C)C)c3nc(-c4c(O)cccc4F)c(F)cc23)[C@@H](C)C1 [crystalline sotorasib],solubility (samples not diluted),[6],low solubility
